Source: ChEMBL document CHEMBL4004849, “Tetrazolylmethyl quinolines: Design, docking studies, synthesis, anticancer and antifungal analyses” (2017)
Activity calls are given as the source filed them.

Assays:
Format in all cases: functional
HL-60(TB) = assay: Growth inhibition of human HL-60(TB) cells at 10^-5 M incubated for 48 hrs by sulforhodamine B assay relative to control
MOLT-4 = assay: Growth inhibition of human MOLT4 cells at 10^-5 M incubated for 48 hrs by sulforhodamine B assay relative to control
SR = assay: Growth inhibition of human SR cells at 10^-5 M incubated for 48 hrs by sulforhodamine B assay relative to control
A549 = assay: Growth inhibition of human A549/ATCC cells at 10^-5 M incubated for 48 hrs by sulforhodamine B assay relative to control
EKVX = assay: Growth inhibition of human EKVX cells at 10^-5 M incubated for 48 hrs by sulforhodamine B assay relative to control
NCI-H226 = assay: Growth inhibition of human NCI-H226 cells at 10^-5 M incubated for 48 hrs by sulforhodamine B assay relative to control
NCI-H23 = assay: Growth inhibition of human NCI-H23 cells at 10^-5 M incubated for 48 hrs by sulforhodamine B assay relative to control
NCI-H460 = assay: Growth inhibition of human NCI-H460 cells at 10^-5 M incubated for 48 hrs by sulforhodamine B assay relative to control
NCI-H522 = assay: Growth inhibition of human NCI-H522 cells at 10^-5 M incubated for 48 hrs by sulforhodamine B assay relative to control
COLO 205 = assay: Growth inhibition of human COLO205 cells at 10^-5 M incubated for 48 hrs by sulforhodamine B assay relative to control
HCC 2998 = assay: Growth inhibition of human HCC2998 cells at 10^-5 M incubated for 48 hrs by sulforhodamine B assay relative to control
HCT-116 = assay: Growth inhibition of human HCT116 cells at 10^-5 M incubated for 48 hrs by sulforhodamine B assay relative to control
HCT-15 = assay: Growth inhibition of human HCT15 cells at 10^-5 M incubated for 48 hrs by sulforhodamine B assay relative to control
KM12 = assay: Growth inhibition of human KM12 cells at 10^-5 M incubated for 48 hrs by sulforhodamine B assay relative to control
SW-620 = assay: Growth inhibition of human SW620 cells at 10^-5 M incubated for 48 hrs by sulforhodamine B assay relative to control
SF-268 = assay: Growth inhibition of human SF268 cells at 10^-5 M incubated for 48 hrs by sulforhodamine B assay relative to control
SF-295 = assay: Growth inhibition of human SF295 cells at 10^-5 M incubated for 48 hrs by sulforhodamine B assay relative to control
SF-539 = assay: Growth inhibition of human SF539 cells at 10^-5 M incubated for 48 hrs by sulforhodamine B assay relative to control
SNB-19 = assay: Growth inhibition of human SNB19 cells at 10^-5 M incubated for 48 hrs by sulforhodamine B assay relative to control
SNB-75 = assay: Growth inhibition of human SNB75 cells at 10^-5 M incubated for 48 hrs by sulforhodamine B assay relative to control
U-251 = assay: Growth inhibition of human U251 cells at 10^-5 M incubated for 48 hrs by sulforhodamine B assay relative to control
LOX IMVI = assay: Growth inhibition of human LOXIMVI cells at 10^-5 M incubated for 48 hrs by sulforhodamine B assay relative to control
Malme-3M = assay: Growth inhibition of human MALME-3M cells at 10^-5 M incubated for 48 hrs by sulforhodamine B assay relative to control
M14 = assay: Growth inhibition of human M14 cells at 10^-5 M incubated for 48 hrs by sulforhodamine B assay relative to control
MDA-MB-435 = assay: Growth inhibition of human MDA-MB-435 cells at 10^-5 M incubated for 48 hrs by sulforhodamine B assay relative to control
SK-MEL-2 = assay: Growth inhibition of human SK-MEL-2 cells at 10^-5 M incubated for 48 hrs by sulforhodamine B assay relative to control
SK-MEL-5 = assay: Growth inhibition of human SK-MEL-5 cells at 10^-5 M incubated for 48 hrs by sulforhodamine B assay relative to control
UACC-257 = assay: Growth inhibition of human UACC257 cells at 10^-5 M incubated for 48 hrs by sulforhodamine B assay relative to control
UACC-62 = assay: Growth inhibition of human UACC62 cells at 10^-5 M incubated for 48 hrs by sulforhodamine B assay relative to control
IGROV-1 = assay: Growth inhibition of human IGROV1 cells at 10^-5 M incubated for 48 hrs by sulforhodamine B assay relative to control
OVCAR-8 = assay: Growth inhibition of human OVCAR8 cells at 10^-5 M incubated for 48 hrs by sulforhodamine B assay relative to control
SK-OV-3 = assay: Growth inhibition of human SKOV3 cells at 10^-5 M incubated for 48 hrs by sulforhodamine B assay relative to control
ACHN = assay: Growth inhibition of human ACHN cells at 10^-5 M incubated for 48 hrs by sulforhodamine B assay relative to control
CAKI-1 = assay: Growth inhibition of human Caki1 cells at 10^-5 M incubated for 48 hrs by sulforhodamine B assay relative to control
RXF 393 = assay: Growth inhibition of human RXF393 cells at 10^-5 M incubated for 48 hrs by sulforhodamine B assay relative to control
SN12C = assay: Growth inhibition of human SN12C cells at 10^-5 M incubated for 48 hrs by sulforhodamine B assay relative to control
TK-10 = assay: Growth inhibition of human TK10 cells at 10^-5 M incubated for 48 hrs by sulforhodamine B assay relative to control
UO-31 = assay: Growth inhibition of human UO31 cells at 10^-5 M incubated for 48 hrs by sulforhodamine B assay relative to control
MDA-MB-231 = assay: Growth inhibition of human MDA-MB-231/ATCC cells at 10^-5 M incubated for 48 hrs by sulforhodamine B assay relative to control
BT-549 = assay: Growth inhibition of human BT549 cells at 10^-5 M incubated for 48 hrs by sulforhodamine B assay relative to control
T47D = assay: Growth inhibition of human T47D cells at 10^-5 M incubated for 48 hrs by sulforhodamine B assay relative to control
Candida albicans [1] = assay: Antifungal activity against Candida albicans at 100 ug/ml by disc diffusion method; conditions: read-out: IZ
Candida albicans [2] = assay: Antifungal activity against Candida albicans after 24 hrs by serial dilution method
Aspergillus fumigatus = assay: Antifungal activity against Aspergillus fumigatus after 24 hrs by serial dilution method

Clc1nc2ccccc2cc1Cn1nnnc1Cc1ccccc1
10 mm: zone of inhibition at 100 µg/mL (Candida albicans [1])
active: growth inhibition (GI) (HL-60(TB)) | growth inhibition (GI) (MOLT-4) | growth inhibition (GI) (SR) | growth inhibition (GI) (A549) | growth inhibition (GI) (EKVX) | growth inhibition (GI) (NCI-H226) | growth inhibition (GI) (NCI-H23) | growth inhibition (GI) (NCI-H460) | growth inhibition (GI) (NCI-H522) | growth inhibition (GI) (COLO 205) | growth inhibition (GI) (HCC 2998) | growth inhibition (GI) (HCT-116) | growth inhibition (GI) (HCT-15) | growth inhibition (GI) (KM12) | growth inhibition (GI) (SW-620) | growth inhibition (GI) (SF-268) | growth inhibition (GI) (SF-295) | growth inhibition (GI) (SF-539) | growth inhibition (GI) (SNB-19) | growth inhibition (GI) (SNB-75) | growth inhibition (GI) (U-251) | growth inhibition (GI) (LOX IMVI) | growth inhibition (GI) (Malme-3M) | growth inhibition (GI) (M14) | growth inhibition (GI) (MDA-MB-435) | growth inhibition (GI) (SK-MEL-2) | growth inhibition (GI) (SK-MEL-5) | growth inhibition (GI) (UACC-257) | growth inhibition (GI) (UACC-62) | growth inhibition (GI) (IGROV-1) | growth inhibition (GI) (OVCAR-8) | growth inhibition (GI) (SK-OV-3) | growth inhibition (GI) (ACHN) | growth inhibition (GI) (CAKI-1) | growth inhibition (GI) (RXF 393) | growth inhibition (GI) (SN12C) | growth inhibition (GI) (TK-10) | growth inhibition (GI) (UO-31) | growth inhibition (GI) (MDA-MB-231) | growth inhibition (GI) (BT-549) | growth inhibition (GI) (T47D)
50 µg/mL: MIC (Aspergillus fumigatus)
25 µg/mL: MIC (Candida albicans [2])
